{"source": "paper PMC10977428", "about": "(Journal of Parkinson's Disease, 2024)", "key": {"c-Abl activation": {"system": "c-Abl activation", "conditions": "once-daily oral administration; cited from earlier work"}, "[1]": {"system": "participants with mild-to-moderate PD", "experiment": "Functional assessments of motor and non-motor features of PD", "format": "in vivo, human", "conditions": "baseline to Day 7"}, "[2]": {"system": "older healthy adults or participants with PD", "experiment": "Safety and tolerability", "format": "in vivo, human"}, "Single ascending dose": {"experiment": "Single ascending dose", "format": "in vivo, human", "conditions": "for dose linearity of single dose PK: Cmax and AUC0 - inf; for AUC0 - ∞/D / Cmax/D / tlag: fed, older healthy adults N = 6, mean (SD)"}, "[3]": {"system": "rodent and non-human primates", "conditions": "daily dosing between 13 and 39 weeks duration; cited from earlier work"}, "[4]": {"system": "models of inherited or sporadic Parkinson’s-like disease", "conditions": "once daily oral administration; cited from earlier work"}, "[5]": {"experiment": "7-day MAD plasma pharmacokinetics, participants with PD", "format": "in vivo", "conditions": "human, oral"}, "[6]": {"experiment": "7-day multiple ascending dose", "format": "in vivo, human", "conditions": "for accumulation of exposures at steady-state: once daily 7 days; for AUC0 - ∞/D / Cmax/D: HV N = 6, mean (SD)"}, "[7]": {"format": "in vivo, human", "conditions": "for concentration at 6 days: human, cerebrospinal fluid, oral"}, "PD features": {"system": "PD features", "conditions": "double blind clinical studies; cited from earlier work"}, "[8]": {"conditions": "SAD 12.5 mg single oral dose, plasma"}, "[9]": {"conditions": "SAD 25.0 mg single oral dose, plasma"}, "[10]": {"conditions": "SAD 37.5 mg single oral dose, plasma"}, "[11]": {"conditions": "SAD 75.0 mg single oral dose, plasma"}, "[12]": {"conditions": "SAD 100 mg single oral dose, plasma"}, "[13]": {"conditions": "SAD 125 mg single oral dose, plasma"}, "[14]": {"conditions": "SAD 175 mg single oral dose, plasma"}, "[15]": {"conditions": "SAD 250 mg single oral dose, plasma"}, "[16]": {"conditions": "SAD 325 mg single oral dose, plasma"}, "[17]": {"conditions": "DAY 1 of 7-day dosing, 12.5 mg once daily, plasma"}, "[18]": {"conditions": "DAY 1 of 7-day dosing, 25.0 mg once daily, plasma"}, "[19]": {"conditions": "DAY 1 of 7-day dosing, 200 mg once daily, plasma"}, "[20]": {"conditions": "DAY 7 of 7-day dosing, 25.0 mg once daily, plasma"}, "[21]": {"conditions": "DAY 7 of 7-day dosing, 200.0 mg once daily, plasma"}}, "note": "Where two headings read alike, the source gives them in different places.", "data": [{"smiles": "Cc1ccc(NC(=O)c2ccc(CN3CCN(C)CC3)cc2)cc1Nc1nccc(-c2cncc(-c3oncc3C)c2)n1", "note": "[Risvodetinib]", "values": [{"measurement": "effect in the MPTP acute toxicity model", "setting": "c-Abl activation", "result": "blocked disease initiation and progression"}, {"measurement": "increase of mean score for MDS-UPDRS Part III", "setting": "[1]; 50 mg once daily 7 days", "result": "6.2 (±9.50) points"}, {"measurement": "increase of mean score for MDS-UPDRS Part III", "setting": "[1]; 100 mg once daily 7 days", "result": "7.4 (±14.1) points"}, {"measurement": "Severity of treatment-related adverse event: Dermatitis", "setting": "[2]; 50 mg, 7-day, 1x/day, PD patients", "result": "Mild"}, {"measurement": "Severity of treatment-related adverse event: Palpitations", "setting": "[2]; 75 mg, Single Dose, healthy subjects", "result": "Mild"}, {"measurement": "Severity of treatment-related adverse event: Constipation", "setting": "[2]; 100 mg, 7-day, 1x/day, PD patients", "result": "Mild"}, {"measurement": "Severity of treatment-related adverse event: Elevated Lipase", "setting": "[2]; 200 mg, 7-day, 1x/day, healthy subjects", "result": "Mild"}, {"measurement": "Severity of treatment-related adverse event: Diarrhea", "setting": "[2]; 325 mg, Single Dose, healthy subjects", "result": "Mild"}, {"measurement": "deaths and serious adverse events", "setting": "[2]; 94 healthy subjects and 14 participants with PD", "result": "no deaths, no serious adverse events"}, {"measurement": "adverse events deemed possibly or probably related to the active drug", "setting": "[2]; among all 36 recorded adverse events, SAD, MAD and MAD-PD, all mild", "result": 11}, {"measurement": "QTcF prolongation", "setting": "[2]; any dose or dose duration", "result": "No participants displayed evidence of QTcF prolongation"}, {"measurement": "orthostatic hypotension, heart rate, heart rhythm, blood pressure", "setting": "[2]; participants with PD", "result": "did not exacerbate pre-existing orthostatic hypotension"}, {"measurement": "dose linearity of single dose PK", "setting": "Single ascending dose", "result": "approximately linear between 12.5 mg and 175 mg"}, {"measurement": "dose linearity of single dose PK", "setting": "Single ascending dose; listed as risvodetinib (IkT-148009)", "result": "approximately linear between 12.5 mg and 200 mg"}, {"measurement": "AUC0 - ∞/D", "setting": "Single ascending dose; [8]", "result": "758 (345) h*ng/mL/mg"}, {"measurement": "Cmax/D", "setting": "Single ascending dose; [8]", "result": "35.8 (26.6) ng/mL/mg"}, {"measurement": "tlag", "setting": "Single ascending dose; [8]", "result": "1.09 (1.48) h"}, {"measurement": "AUC0 - ∞/D", "setting": "Single ascending dose; [9]", "result": "936 (314) h*ng/mL/mg"}, {"measurement": "Cmax/D", "setting": "Single ascending dose; [9]", "result": "37.8 (13.9) ng/mL/mg"}, {"measurement": "tlag", "setting": "Single ascending dose; [9]", "result": "0.614 (0.367) h"}, {"measurement": "AUC0 - ∞/D", "setting": "Single ascending dose; [10]", "result": "823 (776) h*ng/mL/mg"}, {"measurement": "Cmax/D", "setting": "Single ascending dose; [10]", "result": "36.0 (21.2) ng/mL/mg"}, {"measurement": "tlag", "setting": "Single ascending dose; [10]", "result": "0.642 (0.393) h"}, {"measurement": "AUC0 - ∞/D", "setting": "Single ascending dose; [11]", "result": "802 (342) h*ng/mL/mg"}, {"measurement": "Cmax/D", "setting": "Single ascending dose; [11]", "result": "36.6 (13.6) ng/mL/mg"}, {"measurement": "tlag", "setting": "Single ascending dose; [11]", "result": "0.342 (0.143) h"}, {"measurement": "AUC0 - ∞/D", "setting": "Single ascending dose; [12]", "result": "1150 (285) h*ng/mL/mg"}, {"measurement": "Cmax/D", "setting": "Single ascending dose; [12]", "result": "53.2 (12.8) ng/mL/mg"}, {"measurement": "tlag", "setting": "Single ascending dose; [12]", "result": "0.414 (0.350) h"}, {"measurement": "AUC0 - ∞/D", "setting": "Single ascending dose; [13]", "result": "879 (370) h*ng/mL/mg"}, {"measurement": "Cmax/D", "setting": "Single ascending dose; [13]", "result": "42.3 (10.1) ng/mL/mg"}, {"measurement": "tlag", "setting": "Single ascending dose; [13]", "result": "0.306 (0.284) h"}, {"measurement": "AUC0 - ∞/D", "setting": "Single ascending dose; [14]", "result": "982 (359) h*ng/mL/mg"}, {"measurement": "Cmax/D", "setting": "Single ascending dose; [14]", "result": "35.0 (13.7) ng/mL/mg"}, {"measurement": "tlag", "setting": "Single ascending dose; [14]", "result": "0.0944 (0.146) h"}, {"measurement": "AUC0 - ∞/D", "setting": "Single ascending dose; [15]", "result": "858 (417) h*ng/mL/mg"}, {"measurement": "Cmax/D", "setting": "Single ascending dose; [15]", "result": "28.9 (6.55) ng/mL/mg"}, {"measurement": "tlag", "setting": "Single ascending dose; [15]", "result": "0.547 (0.507) h"}, {"measurement": "AUC0 - ∞/D", "setting": "Single ascending dose; [16]", "result": "749 (385) h*ng/mL/mg"}, {"measurement": "Cmax/D", "setting": "Single ascending dose; [16]", "result": "22.5 (9.71) ng/mL/mg"}, {"measurement": "tlag", "setting": "Single ascending dose; [16]", "result": "0.186 (0.250) h"}, {"measurement": "half-life", "setting": "Single ascending dose; human, plasma, oral", "result": "24 to 39", "unit": "h"}, {"measurement": "histopathology in the pancreas", "setting": "[3]", "result": "no histopathology in the pancreas was observed"}, {"measurement": "effect in models of inherited or sporadic Parkinson’s-like disease", "setting": "[4]", "result": "therapeutically effective"}, {"measurement": "AUC(0-inf)", "setting": "[5]; 50 mg", "result": 24500, "unit": "ng·h/mL"}, {"measurement": "AUC(0-inf)", "setting": "[5]; 100 mg", "result": 68700, "unit": "ng·h/mL"}, {"measurement": "accumulation of exposures at steady-state", "setting": "[6]; 100 mg or 200 mg, Day 7 comparable to Day 1", "result": "little or no accumulation"}, {"measurement": "AUC0 - ∞/D", "setting": "[6]; [17]", "result": "706 (424) h*ng/mL/mg"}, {"measurement": "Cmax/D", "setting": "[6]; [17]", "result": "43.0 (23.1) ng/mL/mg"}, {"measurement": "AUC0 - ∞/D", "setting": "[6]; [18]", "result": "780 (305) h*ng/mL/mg"}, {"measurement": "Cmax/D", "setting": "[6]; [18]", "result": "41.5 (22.3) ng/mL/mg"}, {"measurement": "AUC0 - ∞/D", "setting": "[6]; [19]", "result": "759 (263) h*ng/mL/mg"}, {"measurement": "Cmax/D", "setting": "[6]; [19]", "result": "32.5 (6.4) ng/mL/mg"}, {"measurement": "AUC0 - ∞/D", "setting": "[6]; [20]", "result": "1020 (370) h*ng/mL/mg"}, {"measurement": "Cmax/D", "setting": "[6]; [20]", "result": "70.9 (32.3) ng/mL/mg"}, {"measurement": "AUC0 - ∞/D", "setting": "[6]; [21]", "result": "486 (116) h*ng/mL/mg"}, {"measurement": "Cmax/D", "setting": "[6]; [21]", "result": "29.8 (5.6) ng/mL/mg"}, {"measurement": "time to steady-state", "setting": "[6]; doses > 50 mg once daily (higher doses)", "result": "within one day"}, {"measurement": "accumulation of exposures at steady-state", "setting": "[6]; doses less than or equal to 50 mg", "result": "approximately two-fold"}, {"measurement": "time to steady-state", "setting": "[6]; doses ≤50 mg once daily", "result": "≤ 5", "unit": "days"}, {"measurement": "AUC(0-inf)", "setting": "[6]; human, plasma, oral, 12.5 mg", "result": 8830, "unit": "ng·h/mL"}, {"measurement": "AUC(0-inf)", "setting": "[6]; human, plasma, oral, 25 mg", "result": 19500, "unit": "ng·h/mL"}, {"measurement": "AUC(0-inf)", "setting": "[6]; human, plasma, oral, 200 mg", "result": 152000, "unit": "ng·h/mL"}, {"measurement": "half-life", "setting": "[6]; human, plasma, oral, half-life, overall statement in discussion", "result": "~24", "unit": "h"}, {"measurement": "concentration at 6 days", "setting": "[7]; 25 mg", "result": 4.51, "unit": "ng/mL"}, {"measurement": "concentration at 6 days", "setting": "[7]; 50 mg", "result": 3.07, "unit": "ng/mL"}, {"measurement": "concentration at 6 days", "setting": "[7]; 100 mg", "result": 8.42, "unit": "ng/mL"}, {"measurement": "detection in cerebrospinal fluid", "setting": "[7]; pre-dose on the last dosing day of a 7-day dosing study, older healthy adults and PD participants", "result": "detected"}]}, {"smiles": "Cc1cn(-c2cc(NC(=O)c3ccc(C)c(Nc4nccc(-c5cccnc5)n4)c3)cc(C(F)(F)F)c2)cn1", "note": "[nilotinib]", "values": [{"measurement": "improvement of PD features", "setting": "PD features", "result": "failure"}]}]}
